For data set [1], the system named is LRP-1. The experiment in a line: Pulse chase of [35S]-methionine labeled LRP-1 in human brain endothelial cells (half-life). Format: cell-based. The method, then:
Human BEC (4×10^5) were pulsed for 1 hr at 37° C. with 400 μCi of [35S]-methionine (greater than 1000 Ci/mmol; Perkin Elmer, Boston, Mass.) in methionine-free Dulbecco modified Eagle medium (GIBCO BRL, New York, N.Y.). Cells were chased at indicated times within 48 hr. Cell lysates were immunoprecipitated with anti-LRP-1 515 kDa α-chain specific IgG (8G1) on SDS-PAGE. The intensity of signal was quantified in pixels using Storm 860 Phosphoimager (Amersham Biosciences, Piscataway, N.J.).

Data set [2] has as its system LRP-1. The experiment in a line: LRP-1 levels in human brain endothelial cells exposed to Aβ (Western blot). The note with it: human BEC; for effect on LRP-1 levels (85 kDa β-subunit and 515 kDa α-subunit): greater than or equal to 1 μM, 48 hr; for effect on LRP-1 expression: low concentrations (less than 10 nM), within 48 hr. Format: cell-based. The method, then:
Human brain endothelial cells (BEC) were isolated from rapid autopsies of neurologically normal young individuals after trauma. BECs were characterized and cultured, and then incubated with different Aβ isoforms at concentrations ranging from 1 nM to 20 μM within 48 hr. Cells were lysed and equal amounts of proteins (10 μg/mi) were separated by 10% denaturing polyacrylamide gel electrophoresis (SDS-PAGE), transferred onto nitrocellulose membrane, and probed with 5A6 (β-chain) or 8G1 (α-chain) human anti-LRP-1-specific IgGs. The relative density of each protein was determined by scanning densitometry using β-actin as an internal control.

Data set [3] in a line: Brain clearance model in mice: efflux of 125I-Aβ1-40 and 14C-inulin after intracerebral microinjection. It counts as in vivo, mice. On the procedure:
Male C57BL/6 wild-type mice, 8-10 weeks old and 9-10 months old, and male apoE knockout mice (apoE KO) on a C57BL/6 background (Taconic Farm, German-town, N.Y.), 8-10 weeks old and 9-10 months old, were studied.
A stainless steel guide cannula was implanted stereotaxically into the right caudate-putamen of anesthetized mice (60 mg/kg i.p. sodium pentobarbital). Coordinates for the tip of the cannula were 0.9 mm anterior and 1.9 mm lateral to bregma and 2.9 mm below the surface of the brain. The guide cannula and screw were fixed to the skull with methylmethacrylate (Plastics One, Roanoke, Va.) and a stylet introduced into the guide cannula.
(§1) For radioisotope injection, animals were re-anesthetized and an injector cannula (Plastic One, Roanoke, Va.) attached with 24G-TEFLON tubing (Small Parts, Miami Lake, Fla.) to a 10 μl gas-tight microsyringe (Hamilton, Reno, Nev.) was used. The amount of injected tracers was determined accurately using a micrometer to measure linear displacement of the syringe plunger in the precalibrated microsyringe. […] When the effects of different molecular reagents were tested, those were injected simultaneously with the radiolabeled peptides.
The analysis of radioactivity-disappearance curves from the brain was as reported (40, 43). The percentage of radioactivity remaining in the brain after microinjection was determined from eq. 1 as % Recovery in brain=100×(Nb/Ni) where, Nb is the radioactivity remaining in the brain at the end of the experiment and Ni is the radioactivity injected into the brain.
Inulin was studied as a metabolically inert polar reference marker that is neither transported across the BBB nor retained by the brain (40); its clearance rate, i.e., kinulin, provides a measure of the ISF bulk flow and is calculated as Nb(inulin)/Ni(inulin)=exp (−kinulin*t) (2).
For Aβ, there are two possible physiological pathways of elimination—direct transport across the BBB into the bloodstream and elimination by ISF bulk flow into the CSF and cervical lymphatics. It is also possible that Aβ is retained within the brain either by binding to its cell surface receptors directly as a free peptide and/or by binding to different transport proteins. Thus, according to the model, the fraction of Aβ remaining in the brain can be expressed as Nb(Aβ)/Ni(Aβ)=a1+a2*e^−k1*t (3), where a1=k2/(k1+k2) and a2=k1/(k1+k2), and k1 and k2 denote the fractional coefficients of total efflux from the brain and retention within the brain, respectively.
The fractional rate constant of Aβ efflux across the BBB from brain parenchyma can be calculated by knowing the fractional rate coefficient of total efflux of Aβ and inulin as k3=k1−k(inulin) (4), i.e., as the difference between the fractional rate constant for total efflux of Aβ and the fractional rate constant of inulin. The half-saturation concentration for the elimination of Aβ by transport across the BBB, k0.5, was calculated from the equation [1−(Nb/Ni)]*100=Clmax/(k0.5+Ni) (5), where Clmax represents the maximal efflux capacity for the saturable component of Aβ clearance across the BBB corrected for peptide clearance by the ISF flow. Clmax is expressed as a percentage of the injected dose, [1−(Nb/Ni)]×100, cleared from brain by saturable BBB transport over 30 min.
The MLAB mathematical modeling system (Civilized Software, Silver Spring, Md.) was used to fit the compartmental model to the disappearance curves or percent recovery data with inverse square weighting.

Details of data set [4]: species or system mice. The settings on record: mouse, in vivo.
Description: Brain, blood and CSF were sampled and prepared for radioactivity analysis. […] Brain, plasma and CSF samples were mixed with TCA (final concentration 10%), centrifuged at 14,000 rpm at 4° C. for 8 min to 10 min, and radioactivity in the precipitate, water and chloroform fractions determined in gamma counter (Wallac, Turku, Finland).
The supernatant was then lyophilized. The resulting material was dissolved in 0.005% TFA in water, pH 2, before injection onto a C4 column (Vydac, The Separation Group, Hesperia, Calif.). […] Column eluants were monitored at 214 nm. The eluted fractions were collected and counted.
For SDS-PAGE analysis, TCA precipitated samples were resuspended in 1% SDS, vortexed and incubated at 55° C. for 5 min, then neutralized, boiled for 3 min, homogenized and analyzed by electrophoresis in 10% Tris-tricine gels followed by fluorography.
The test system of data set [5] is brain clearance of ^125I-Aβ1-40. Kind of data set: Effect of molecular reagents on brain clearance of 125I-Aβ1-40 at 30 min. The settings on record: 125I-Aβ1-40 12 nM. Format: in vivo, mice. The method, then: as §1
The next set of experiments was designed to characterize the BBB transport system responsible for the transcytosis of Aβ. […] Clearance of ^14C-inulin was not affected by any of the studied molecular reagents.

Where a SMILES comes first, the peptide text is derived from it. The star is where a group is joined. Cbz = O=C(OCc1ccccc1)*

As to `CC(C)C[C@@H](C=O)NC(=O)[C@H](CC(C)C)NC(=O)[C@H](CC(C)C)NC(=O)OCc1ccccc1` [MG132] (Cbz-Leu-Leu-Leu-aldehyde), the “effect on t1/2 for LRP-1” value in the data set on LRP-1 [1] (MG132 20 μM, both control and Aβ-treated cells) was “increased”.
Consider “Aβ1-40: synthetic wild-type amyloid-β peptide of 40 amino acids; in clearance text it means the radioiodinated tracer”, for which, in the data set with LRP-1 [2], the “effect on LRP-1 levels (85 kDa β-subunit and 515 kDa α-subunit)” value (shortened to “effect on LRP-1 levels”) is reported as “progressively decreased”; the “effect on LRP-1 expression” value is “do not alter significantly”. For the same molecule, the “half-saturation (K0.5) of the BBB efflux transport system” value in data set [3] (mouse) is 15.3 nM. Moreover, in data set [3] (mouse, in vivo), the “Retention in brain t½” value was found to be 2.742 h, the “Transport by BBB t½” value was determined as 0.577 ± 0.06 h, the “elimination rate from brain at less than 2 nM faster than at a load of 60 nM” value was 3.5 fold and the “rate k of clearance from the brain higher than that for inulin” value was 7.9 fold. In data set [3] (mouse, in vivo), the “reduction of brain clearance in 9-month old apoE KO mice” value amounted to 46%, the “reduction of brain clearance in 9-month old wild-type mice” value was found to be 55% and the “reduction of brain clearance in young (2-month old) apoE KO mice” value is 30%. In data set [3] (mouse, in vivo, 5 h), the “dose remaining sequestered within the CNS” value is 15.6%. In data set [3] (mouse, not told), the “Total Efflux t½ (half-time for brain efflux)” value was 0.417 h and the “difference in half-time of brain efflux versus inulin” value came out at 9.4 fold. The “degradation/metabolism in brain ISF prior to BBB transport” value in data set [4] is “not observed”.
With “Aβ1-42: synthetic wild-type amyloid-β peptide of 42 amino acids”, in the data set on LRP-1 [2], the “effect on LRP-1 levels” value is listed as “progressively decreased”; the “effect on LRP-1 expression” value is reported as “do not alter significantly”. In the data set with LRP-1 [1] (20 μM, control 9.6 hr, human BEC), the “t1/2 for LRP-1 in the presence of peptide” value turned out to be 6.4 h.
In the case of ^14C-Inulin, in data set [3] (60 nM), the “Retention in brain k” value is “None”, the “Retention in brain t½” value was “None” and the “Transport by BBB t½” value is reported as “None”. Moreover, the “Total Efflux k” value in data set [3] (60 nM 125I-Aβ1-40 with 14C-inulin, microinjection into caudate nucleus, mice) came to 0.0029 ± 0.0002 min⁻¹. The “Total Efflux t½ (half-time for brain efflux)” value in data set [3] (60 nM, microinjection into caudate nucleus, young mice) amounted to 3.983 ± 0.208 h. Besides, in data set [3] (60 nM, ISF bulk flow), the “Transport by ISF k” value came out at 0.0029 ± 0.0002 min⁻¹ and the “Transport by ISF t½” value came to 3.98 ± 0.208 h. The “Transport by BBB k” value in data set [3] (60 nM, k3=k1−k(inulin), eq. 4) is listed as “None”.
With “mutant Aβ (Dutch/Iowa4o): synthetic Aβ peptide of 40 amino acids with Dutch/Iowa double mutation E22Q/D23N”, in the data set with LRP-1 [2], the “effect on LRP-1 levels” value is “progressively decreased”; the “effect on LRP-1 expression” value was “do not alter significantly”.

B1: RAP: receptor associated protein, chaperone that antagonizes binding of LRP ligands to LRP-1 and LRP-2 (protein, UniProt P30533 35-357, looked up)
Alpha-2-macroglobulin …: YSREKNQPKPSPKRESGEEFRMEKLNQLWEKAQRLHLPPVRLAELHADLKIQERDELAWKKLKLDGLDEDGEKEARLIRNLNVILAKYGLDGKKDARQVTSNSLSGTQEDGLDDPRLEKLWHKAKTSGKFSGEELDKLWREFLHHKEKVHEYNVLLETLSRTEEIHENVISPSDLSDIKGSVLHSRHTELKEKLRSINQGLDRLRRVSHQGYSTEAEFEEPRVIDLWDLAQSANLTDKELEAFREELKHFEAKIEKHNHYQKQLEIAHEKLRHAESVGDGERVSRSREKHALLEGRTKELGYTVKKHLQDLSGRISRARHNEL
As for B1, in data set [5] (RAP 200 nM, versus vehicle), the “reduction in Aβ clearance from the brain” value was 30%. Further, the “decrease in Aβ clearance from the brain” value in data set [5] (RAP 5 μM) stood at 44%.

The values are drawn from patent US20040259159A1, “Role of LDL receptor protein-1 (LRP-1) in Alzheimer's disease” (priority 2000, published 2004).
